Results on ten compounds are retold here after paper PMC11727410, “Identification of Chemical Constituents from Leaves and Stems of Alpinia oxyphylla: Potential Antioxidant and Tyrosinase Inhibitory Properties” (Antioxidants, 2024).

One may read the IC50 as the concentration needed to halve the response being measured. A low value points to inhibition by little substance.

A short description of data set [1]: DPPH radical scavenging activity assay. The settings on record: for Inhibitory rate (%), DPPH (Table S4): Table S4, concentration not given; for DPPH Inhibitory Rate (%): concentration 200 μM. The method, then:
The DPPH radical scavenging capacity was measured according to the following reference at room temperature (25 °C). Briefly, 320 μL sample in DMSO with different concentrations (400, 200, 100, 50, 25, 12.5 μM) was reacted with 320 μL DPPH reagent (0.1 mM) in 1.5 mL centrifuge tube away from light for 30 min. Next, 200 μL of the mixture was transferred into a 96-well plate, which was used for measuring the absorbance at 517 nm (ODsample). A control (ODcontrol) and blank (ODblank) were, respectively, established from the mixture solutions of the sample in DMSO and ethanol and the mixture solution of DMSO and DPPH reagent. Vitamin C was the positive control, with the same concentration as the compounds. The DPPH radical scavenging capacity was calculated according to the following:DPPH radical scavenging capacity (%) = [1 − (ODsample − ODcontrol)/ODblank] × 100%
(DPPH is a stable violet radical that fades when it is reduced.)

A short description of data set [2]: DPPH radical scavenging activity assay. The settings on record: concentration 100 μg/mL.
Data set [3] can be described thus: ABTS radical scavenging activity assay. The note with it: for Inhibitory rate (%), ABTS (Table S4): Table S4, concentration not given; for ABTS Inhibitory Rate (%): concentration 200 μM, "-" not active. The protocol: The ABTS radical scavenging activity was examined as previously reported at room temperature (25 °C). Briefly, 160 μL sample in DMSO with different concentrations (800, 400, 200, 100, 50, 25 μM) was reacted with 480 μL ABTS reagent in a 1.5 mL centrifuge tube away from light for 6 min. Next, 200 μL of the mixture was taken out and transferred into a 96-well plate, which was used for measuring the absorbance by a microplate reader at 734 nm (ODsample). The control (ODcontrol) and blank (ODblank) were, respectively, established from the mixture solutions of the sample in DMSO and water and the mixture solution of DMSO and ABTS reagent. Trolox was the positive control, with the same concentration with compounds. The ABTS radical scavenging capacity was calculated as following:ABTS radical scavenging capacity (%) = [1 − (ODsample − ODcontrol)/ODblank] × 100%

Data set [4] concerns B16 cells. The data set is described as follows: Measurement of melanin produced by B16 cells. Format: cell-based. The note with it: 150 μM, compared with positive control kojic acid; concentration dependent. The protocol: (§1) B16 melanoma cells (PNS-MC-36) were purchased from Procell Life Science & Technology Co., Ltd. (Wuhan, China).
B16 cells were seeded into 96-well plates with […], and incubated at 37 °C, 5% CO2, and 90% humidity for 24 h. Having removed the supernatant, 100 μL samples with different concentrations were added. Medium without the sample was added as the blank. After incubation for another 72 h, the cells were dissolved in 100 μL of 2 N NaOH, and then incubated at 80 °C. The absorbance (OD) was measured at 450 nm.

For data set [5], the system named is B16 cells. The data set is described as follows: MTT assay for cell viability. The data set is classed as cell-based. The settings on record: under the selected concentrations. The method, then: as §1
A modified MTT method was applied to screen cell viability. B16 cells were cultured in 96-well plates and mixed with different concentrations of the sample after 24 h. After having been incubated for another 72 h, MTT solution was added to form formazan, which was followed by dissolved in 100 μL DMSO, and then the absorbance (OD) was measured at 490 nm. Cell viability was calculated as percent changes relative to control.

Data set [6] in a line: ABTS radical scavenging activity assay. The note with it: concentration 100 μg/mL.

`O=C1O[C@H]([C@@H](O)CO)C(O)=C1O` [Vitamin C, reference compound]: in data set [1], the “DPPH IC50 ± SD” value is 6.20 ± 0.41 µg/mL; the “Inhibitory rate (%), DPPH (Table S4)” value is 85.44 ± 0.34%; the “DPPH Inhibitory Rate (%)” value turned out to be 85.44 ± 0.34%. In data set [2], the “DPPH free radical scavenging rate” value is recorded as 72.7%.
For `COc1cc(CC(O)C(O)CC2OC(CC(O)C(O)Cc3ccc(O)c(OC)c3)C3C(c4cc(OC)c(O)c(OC)c4)OC(c4cc(OC)c(O)c(OC)c4)C23)ccc1O` (stereo not drawn) [Compound 1, Aloxy A], in data set [1], the “Inhibitory rate (%), DPPH (Table S4)” value was determined as 50.74 ± 2.31% and the “DPPH Inhibitory Rate (%)” value turned out to be 50.74 ± 2.31 %. Also, in data set [3], the “ABTS IC50 ± SD” value is 39.59 ± 0.53 µg/mL; the “Inhibitory rate (%), ABTS (Table S4)” value is listed as 91.09 ± 0.55%; the “ABTS Inhibitory Rate (%)” value is 91.09 ± 0.55 %. For the same compound, in the data set with B16 cells [4], the “Melanin production inhibition activity in B16 cells” value is “stronger inhibitory effects than positive control (kojic acid)”. For the same compound, the “Toxicity to B16 cells” value in the data set on B16 cells [5] is listed as “no toxicity”.
As for `COC(=O)C1OC(Oc2c(-c3ccc(O)cc3)oc3cc(O)cc(O)c3c2=O)C(OC2OC(C)C(O)C(O)C2O)C(OC(C)=O)C1OC(C)=O` [Compound 2, Kaempferol 3-O-α-L-rhamnosyl-(1 → 2)-(3″,4″-diacetyl-β-D-glucuronatemethyl ester)], in data set [1], the “Inhibitory rate (%), DPPH (Table S4)” value worked out at 22.77 ± 1.85% and the “DPPH Inhibitory Rate (%)” value was found to be 22.77 ± 1.85 %. For the same compound, in data set [3], the “ABTS IC50 ± SD” value was determined as 6.42 ± 0.12 µg/mL; the “Inhibitory rate (%), ABTS (Table S4)” value is 93.04 ± 0.10%; the “ABTS Inhibitory Rate (%)” value came out at 93.04 ± 0.10%. The “Melanin production inhibition activity in B16 cells” value in the data set on B16 cells [4] is reported as “stronger inhibitory effects than positive control (kojic acid)”. Moreover, the “Toxicity to B16 cells” value in the data set with B16 cells [5] was “no toxicity”.
With `Cc1c(C)c2c(c(C)c1O)CCC(C)(C(=O)O)O2` (stereo not drawn) [trolox, Trolox, reference compound], in data set [3], the “ABTS IC50 ± SD” value is 31.61 ± 0.60 µg/mL; the “Inhibitory rate (%), ABTS (Table S4)” value turned out to be 92.69 ± 0.03%; the “ABTS Inhibitory Rate (%)” value was determined as 92.69 ± 0.03%. Besides, the “ABTS free radical scavenging rate” value in data set [6] is recorded as 91.6%.
Consider `O=c1ccc2c3c(c(O)cc2o1)C[C@@H](O)[C@@H](c1ccc(O)c(O)c1)O3` [Compound 16, epiphyllocoumarin], for which, in data set [1], the “DPPH IC50 ± SD” value came out at 7.29 ± 0.60 µg/mL; the “Inhibitory rate (%), DPPH (Table S4)” value worked out at 76.93 ± 1.34%; the “DPPH Inhibitory Rate (%)” value is reported as 76.93 ± 1.34 %. Further, in data set [3], the “ABTS IC50 ± SD” value was determined as 8.49 ± 0.06 µg/mL; the “Inhibitory rate (%), ABTS (Table S4)” value was 92.51 ± 0.27%; the “ABTS Inhibitory Rate (%)” value is given as 92.51 ± 0.27%.
On to `COc1cc(O)cc(OC)c1O[C@@H]1O[C@H](CO)[C@@H](O)[C@H](O)[C@H]1O` [Compound 19, 4-hydroxy-2,6-dimethoxyphenyl-β-D-glucoside], for which, in data set [1], the “DPPH IC50 ± SD” value came out at 114.44 ± 0.14 µg/mL; the “Inhibitory rate (%), DPPH (Table S4)” value was determined as 60.59 ± 0.17%; the “DPPH Inhibitory Rate (%)” value worked out at 60.59 ± 0.17 %. The same compound gave a half-maximal inhibitory concentration (IC50) in data set [1] (converted from μg/mL) of 345 µM. Further, in data set [3], the “ABTS IC50 ± SD” value turned out to be 17.50 ± 0.23 µg/mL; the “Inhibitory rate (%), ABTS (Table S4)” value amounted to 92.57 ± 0.10%; the “ABTS Inhibitory Rate (%)” value is given as 92.57 ± 0.10%. The compound also came in with an IC50 in data set [3] (converted from μg/mL) of 52.9 µM.
As for `COc1cc(CCC(=O)CCCCc2ccccc2)ccc1O` [Compound 6, yakuchinone A], in data set [1], the “Inhibitory rate (%), DPPH (Table S4)” value was determined as 18.77 ± 1.28% and the “DPPH Inhibitory Rate (%)” value was determined as 18.77 ± 1.28 %. Besides, in data set [3], the “Inhibitory rate (%), ABTS (Table S4)” value turned out to be 4.42 ± 0.12% and the “ABTS Inhibitory Rate (%)” value was determined as 4.42 ± 0.12 %.
Regarding `COc1cc(CCC(=O)CC(O)CCc2ccc(O)c(OC)c2)ccc1O` (stereo not drawn) [Compound 7, hexahydrocurcumin], in data set [1], the “Inhibitory rate (%), DPPH (Table S4)” value came out at 35.80 ± 0.77% and the “DPPH Inhibitory Rate (%)” value is 35.80 ± 0.77 %. Moreover, in data set [3], the “ABTS IC50 ± SD” value was found to be 13.17 ± 0.18 µg/mL; the “Inhibitory rate (%), ABTS (Table S4)” value was found to be 91.09 ± 0.41%; the “ABTS Inhibitory Rate (%)” value was found to be 91.09 ± 0.41 %. Further, in the data set with B16 cells [4], the “Melanin production inhibition activity in B16 cells” value is given as “stronger inhibitory effects than positive control (kojic acid)”. In addition, in the data set on B16 cells [5], the “Toxicity to B16 cells” value is on record as “no toxicity”.
For `O=c1ccc2c(O)cc3c(c2o1)C[C@@H](O)[C@@H](c1ccc(O)c(O)c1)O3` [Compound 15, isoepiphyllocoumarin], in data set [1], the “Inhibitory rate (%), DPPH (Table S4)” value is reported as 36.54 ± 3.60% and the “DPPH Inhibitory Rate (%)” value is 36.54 ± 3.60 %. In data set [3], the “ABTS IC50 ± SD” value is 30.57 ± 0.93 µg/mL; the “Inhibitory rate (%), ABTS (Table S4)” value amounted to 71.48 ± 0.32%; the “ABTS Inhibitory Rate (%)” value worked out at 71.48 ± 0.32 %.
For the compound `O=C1C[C@@H](c2ccccc2)Oc2cc(O)cc(O)c21` [Compound 14, pinocembrin], in data set [1], the “Inhibitory rate (%), DPPH (Table S4)” value was found to be 27.53 ± 1.96% and the “DPPH Inhibitory Rate (%)” value is reported as 27.53 ± 1.96 %. In data set [3], the “ABTS IC50 ± SD” value was determined as 27.73 ± 0.69 µg/mL; the “Inhibitory rate (%), ABTS (Table S4)” value was 78.11 ± 0.32%; the “ABTS Inhibitory Rate (%)” value is given as 78.11 ± 0.32 %.
